Source: patent US20260070917A1, “CYCLIN DEPENDENT KINASE DEGRADERS AND METHODS OF USE THEREOF” (Differentiated Therapeutics Inc, priority 2023, published 2026)
Read-outs that look alike come from different tables or passages of the source.

How the values were obtained:
Format in all cases: cell-based
[1] = target: T1, CDK9 (Homo sapiens, UniProt P50750); assay: HiBit Assay Protocol for CDK9 (HIBIT protein quantification, degradation); settings: HEK293-CDK9-Hibit cells, compound treatment for 6 hours; for Dmax: read-out: CDK9 HIBIT Protein Quantification Maximum
T1 construct: host or cells: HEK293-CDK9-Hibit
T1 sequence (P50750 whole entry): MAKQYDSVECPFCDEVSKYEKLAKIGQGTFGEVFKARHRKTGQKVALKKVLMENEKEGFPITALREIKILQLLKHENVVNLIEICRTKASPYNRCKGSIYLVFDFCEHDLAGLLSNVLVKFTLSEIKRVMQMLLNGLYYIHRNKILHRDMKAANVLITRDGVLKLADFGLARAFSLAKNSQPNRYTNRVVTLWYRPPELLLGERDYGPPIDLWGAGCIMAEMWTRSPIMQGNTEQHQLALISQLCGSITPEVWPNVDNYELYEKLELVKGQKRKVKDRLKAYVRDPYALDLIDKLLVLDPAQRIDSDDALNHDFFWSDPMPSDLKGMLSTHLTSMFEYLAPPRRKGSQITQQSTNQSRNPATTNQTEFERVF
How it was run: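 HEK293 cells carrying HiBiT-tagged CDK9 treated 6 h with compounds in a 3-fold, 10-point dilution series. CDK9 level read by lytic Nano-Glo HiBiT/LgBiT luminescence and normalized to 0.1% DMSO (high) and medium-only (low) controls. DC50 from curve fitting.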

[2] = target: T2, CCNE1 (Homo sapiens, UniProt P24864); assay: HiBit Assay Protocol for CCNE1 (HIBIT protein quantification, degradation); settings: HEK293-CCNE1-Hibit cells, compound treatment for 6 hours
T2 construct: host or cells: HEK293-CCNE1-Hibit
T2 sequence (P24864 whole entry): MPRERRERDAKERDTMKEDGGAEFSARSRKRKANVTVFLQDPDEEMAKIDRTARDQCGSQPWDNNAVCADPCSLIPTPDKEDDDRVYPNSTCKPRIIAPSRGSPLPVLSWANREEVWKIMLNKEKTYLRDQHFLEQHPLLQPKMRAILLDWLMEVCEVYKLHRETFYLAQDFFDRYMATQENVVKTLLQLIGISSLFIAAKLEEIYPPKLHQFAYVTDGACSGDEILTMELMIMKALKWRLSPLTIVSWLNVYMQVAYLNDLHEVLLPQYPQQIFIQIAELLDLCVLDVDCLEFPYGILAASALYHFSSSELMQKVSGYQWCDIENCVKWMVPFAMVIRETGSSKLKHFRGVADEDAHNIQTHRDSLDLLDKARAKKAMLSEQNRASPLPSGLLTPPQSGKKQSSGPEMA
How it was run: (§1)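 HEK293 cells expressing HiBiT-tagged CCNE1 were seeded overnight, then treated 6 h with a 3-fold, 10-point compound dilution series. HiBiT levels were read by lytic LgBiT luminescence and normalised to DMSO-only (high) and medium-only (low) controls. DC50 was derived by curve fitting.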

[3] = target: T3, CCNE1 (Homo sapiens, UniProt P24864+P24941); assay: as above; settings: HEK293-CCNE1-Hibit cells, compound treatment for 6 hours, ABS DC50
T3 construct: host or cells: HEK293-CCNE1-Hibit
T3 sequence (P24864 whole entry, one chain of several): as the sequence (P24864 whole entry) above
How it was run: as §1

[4] = target: T4, CDK2 (Homo sapiens, UniProt P24941); assay: HiBit Assay Protocol for CDK2 (HIBIT protein quantification, degradation); settings: HEK293-CDK2-Hibit cells, compound treatment for 6 hours; for DC50: ABS DC50
T4 construct: host or cells: HEK293-CDK2-Hibit
How it was run: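 HEK293 cells expressing HiBiT-tagged CDK2 were seeded overnight, then treated 6 h with a 3-fold, 10-point compound dilution series. CDK2 levels were read as luminescence after lytic HiBiT/LgBiT detection, normalised to DMSO-only and medium-only controls, and DC50 derived by curve fitting.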

| Dmax ([1]; 6 h) [%] | DC50 ([1]; ABS DC50) [nM] | CCNE1 HIBIT Protein Quantification Maximum [2] [%] | DC50 [3] [nM] | CDK2 HIBIT Protein Quantification Maximum [4] [%] | DC50 [4] [nM] | SMILES | Dmax [1] [%] |
| --- | --- | --- | --- | --- | --- | --- | --- |
| 52 | 2170 | 53 | 23.6 | 88 | 4.22 | C[C@@H](c1cccc(S(=O)(=O)N2CCC(Nc3ncc4c(n3)N([C@@H]3CCC[C@@H](O)C3)C(=O)C43CC3)CC2)c1)N1CCC(c2ccc3c(N4CCC(=O)NC4=O)nn(C)c3c2)CC1 (single isomer, unassigned) [Compound 152] |  |
| 13 |  | 61 | 9.88 | 89 | 3.81 | CC(c1cc(S(=O)(=O)N2CC[C@H](Nc3ncc4c(n3)N([C@@H]3CCC[C@@H](O)C3)C(=O)C43CC3)[C@H](F)C2)ccc1F)N1CCC(c2ccc3c(N4CCC(=O)NC4=O)nn(C)c3c2)CC1 (single isomer, unassigned) [Compound 200, 1-(6-{1-[(1R*)-1-{2-Fluoro-5-[(3R,4S)-3-fluoro-4-{7′-[(1R,3R)-3-hydroxycyclohexyl]-6′-oxospiro[cyclopropane-1,5′-pyrrolo[2,3-d]pyrimidin]-2′-ylamino}piperidin-1-ylsulfonyl]phenyl}ethyl]piperidin-4-yl}-1-methylindazol-3-yl)-1,3-diazinane-2,4-dione] |  |
|  |  | 52.8 | 17.6 | 79 | 17.3 | C[C@H]1CCC[C@H]1N1C(=O)C2(CC2)c2cnc(NC3CCN(S(=O)(=O)N(C)CCCN4CCC(c5cccc6c5n(C)c(=O)n6C5CCC(=O)NC5=O)CC4)CC3)nc21 (stereo partly drawn) [Compound 13, N-(3-{4-[1-(2,6-Dioxopiperidin-3-yl)-3-methyl-2-oxo-1,3-benzodiazol-4-yl]piperidin-1-yl}propyl)-N-methyl-4-{7′-[(1R,2S)-2-methylcyclopentyl]-6′-oxospiro[cyclopropane-1,5′-pyrrolo[2,3-d]pyrimidin]-2′-ylamino}piperidine-1-sulfonamide] |  |
| 49 |  | 59 | 515 | 46 |  | CC1CCCC1N1C(=O)C2(CC2)c2cnc(NC3CCN(S(=O)(=O)N4CCC5(CCCN5C(=O)CCCCCc5cccc6c5n(C)c(=O)n6C5CCC(=O)NC5=O)C4)CC3)nc21 (stereo not drawn) [Compound 36] |  |
| 9 |  | 48 |  | 90 | 21.9 | C[C@@H]1CN(c2ccc3c(N4CCC(=O)NC4=O)nn(C)c3c2)CCN1[C@H](C)c1cccc(S(=O)(=O)N2CC[C@H](Nc3ncc4c(n3)N([C@@H]3CCC[C@@H](O)C3)C(=O)C43CC3)[C@H](F)C2)c1 [Compound 191, 1-(6-((R)-4-((R)-1-(3-(((3R,4S)-3-Fluoro-4-((7′-((1R,3R)-3-hydroxycyclohexyl)-6′-oxo-6′,7′-dihydrospiro[cyclopropane-1,5′-pyrrolo[2,3-d]pyrimidin]-2′-yl)amino)piperidin-1-yl)sulfonyl)phenyl)ethyl)-3-methylpiperazin-1-yl)-1-methyl-1H-indazol-3-yl)dihydropyrimidine-2,4(1H,3H)-dione] |  |
| 16 |  | 45 |  | 92 | 4.67 | C[C@@H]1CN(c2ccc3c(N4CCC(=O)NC4=O)nn(C)c3c2)CCN1[C@@H](C)c1cccc(S(=O)(=O)N2CC[C@H](Nc3ncc4c(n3)N([C@@H]3CCC[C@@H](O)C3)C(=O)C43CC3)[C@H](F)C2)c1 [Compound 192, 1-(6-((R)-4-((S)-1-(3-(((3R,4S)-3-Fluoro-4-((7′-((1R,3R)-3-hydroxycyclohexyl)-6′-oxo-6′,7′-dihydrospiro[cyclopropane-1,5′-pyrrolo[2,3-d]pyrimidin]-2′-yl)amino)piperidin-1-yl)sulfonyl)phenyl)ethyl)-3-methylpiperazin-1-yl)-1-methyl-1H-indazol-3-yl)dihydropyrimidine-2,4(1H,3H)-dione] |  |
| 21 |  | 41 |  | 92 | 5.54 | CC(c1cccc(S(=O)(=O)N2CC[C@H](Nc3ncc4c(n3)N([C@@H]3CCC[C@@H](O)C3)C(=O)C43CC3)[C@H](F)C2)c1)N1CCN(c2ccc3c(N4CCC(=O)NC4=O)nn(C)c3c2)C[C@H]1C (stereo partly drawn) [Compound 195, 1-(6-((3R)-4-(1-(3-(((3R,4S)-3-Fluoro-4-((7′-((1R,3R)-3-hydroxycyclohexyl)-6′-oxo-6′,7′-dihydrospiro[cyclopropane-1,5′-pyrrolo[2,3-d]pyrimidin]-2′-yl)amino)piperidin-1-yl)sulfonyl)phenyl)ethyl)-3-methylpiperazin-1-yl)-1-methyl-1H-indazol-3-yl)dihydropyrimidine-2,4(1H,3H)-dione] |  |
| 14 |  | 36 |  | 93 | 12 | C[C@H](c1cccc(S(=O)(=O)N2CC[C@H](Nc3ncc4c(n3)N([C@@H]3CCC[C@@H](O)C3)C(=O)C43CC3)[C@H](F)C2)c1)N1CCN(c2ccc3c(N4CCC(=O)NC4=O)nn(C)c3c2)CC1 [Compound 196] |  |
| 8 |  | 33 |  | 91 | 10.5 | C[C@@H](c1cccc(S(=O)(=O)N2CC[C@H](Nc3ncc4c(n3)N([C@@H]3CCC[C@@H](O)C3)C(=O)C43CC3)[C@H](F)C2)c1)N1CCN(c2ccc3c(N4CCC(=O)NC4=O)nn(C)c3c2)CC1 [Compound 197] |  |
| 2 |  | 40 |  | 80 | 2.48 | C[C@H](c1cccc(S(=O)(=O)N2CC[C@H](Nc3ncc4c(n3)N([C@@H]3CCC[C@@H](O)C3)C(=O)C43CC3)[C@H](F)C2)c1)N1CCC(c2ccc3c(N4CCC(=O)NC4=O)nn(C)c3c2)CC1 [Compound 198] |  |
| 15 |  | 33 |  | 85 | 10.4 | CC(C)[C@@H]1CN([C@H](C)c2cccc(S(=O)(=O)N3CC[C@H](Nc4ncc5c(n4)N([C@@H]4CCC[C@@H](O)C4)C(=O)C54CC4)[C@H](F)C3)c2)CCN1c1ccc2c(N3CCC(=O)NC3=O)nn(C)c2c1 [Compound 204] |  |
| 14 |  | 38 |  | 88 | 13.1 | CC(C)[C@@H]1CN([C@@H](C)c2cccc(S(=O)(=O)N3CC[C@H](Nc4ncc5c(n4)N([C@@H]4CCC[C@@H](O)C4)C(=O)C54CC4)[C@H](F)C3)c2)CCN1c1ccc2c(N3CCC(=O)NC3=O)nn(C)c2c1 [Compound 205] |  |
| 13 |  | 43 |  | 91 | 10.9 | C[C@@H](c1cccc(S(=O)(=O)N2CC[C@H](Nc3ncc4c(n3)N([C@@H]3CCC[C@@H](O)C3)C(=O)C43CC3)[C@H](F)C2)c1)N1CCN(c2ccc3c(N4CCC(=O)NC4=O)nn(C)c3c2)[C@@H](C)C1 [Compound 206] |  |
| 23 |  | 38 |  | 90 | 3.5 | C[C@H](c1cccc(S(=O)(=O)N2CC[C@H](Nc3ncc4c(n3)N([C@@H]3CCC[C@@H](O)C3)C(=O)C43CC3)[C@H](F)C2)c1)N1CCN(c2ccc3c(N4CCC(=O)NC4=O)nn(C)c3c2)[C@@H](C)C1 [Compound 207] |  |
| 14 |  | 45 |  | 91 | 4.62 | C[C@H](c1cccc(S(=O)(=O)N2CC[C@H](Nc3ncc4c(n3)N([C@@H]3CCC[C@@H](O)C3)C(=O)C43CC3)[C@H](F)C2)c1)N1CCN(c2ccc3c(N4CCC(=O)NC4=O)nn(C)c3c2)[C@H](C)C1 [Compound 208] |  |
| 16 |  | 43 |  | 91 | 12.7 | C[C@@H]1CN([C@@H](C)c2cccc(S(=O)(=O)N3CC[C@H](Nc4ncc5c(n4)N([C@@H]4CCC[C@@H](O)C4)C(=O)C54CC4)[C@H](F)C3)c2)CCN1c1ccc2c(N3CCC(=O)NC3=O)nn(C)c2c1 [Compound 209] |  |

| SMILES | Dmax ([1]; 6 h) [%] | DC50 ([1]; ABS DC50) [nM] | CCNE1 HIBIT Protein Quantification Maximum [2] [%] | DC50 [3] [nM] | CDK2 HIBIT Protein Quantification Maximum [4] [%] | DC50 [4] [nM] | Dmax [1] [%] |
| --- | --- | --- | --- | --- | --- | --- | --- |
| Cn1nc(N2CCC(=O)NC2=O)c2cccc(C3CCN(Cc4cccc(S(=O)(=O)N5CCC(Nc6ncc7c(n6)N([C@H]6CCC[C@H](O)C6)C(=O)C76CC6)CC5)c4)CC3)c21 (stereo in doubt) [Compound 146, 1-[7-(1-{[3-(4-{7′-[(1S,3S)-3-hydroxycyclohexyl]-6′-oxospiro[cyclopropane-1,5′-pyrrolo[2,3-d]pyrimidin]-2′-ylamino}piperidin-1-ylsulfonyl)phenyl]methyl}piperidin-4-yl)-1-methylindazol-3-yl]-1,3-diazinane-2,4-dione] |  |  | 82 | 36.2 | 76 | 30 | 4 |
